Reference: patent US9034897B2, “Indanyl-substituted 4,5,6,7-tetrahydro-1H-pyrazolo[4,3-C]pyridines, their use as medicament, and pharmaceutical preparations comprising them” (SANOFI, priority 2011, dated 2015)

Target: Human TASK-1 channels (Homo sapiens (Human), UniProt O14649)
Assay: Activity on the TASK-1 channel in Xenopus oocytes (two-microelectrode voltage clamp)
Type: cell-based
Settings: for IC50: human TASK-1 expressed in Xenopus oocytes, currents during 500 ms pulses to 40 mV, room temperature; for inhibition at 5 µM: percentage inhibition of TASK-1 control current, Xenopus oocytes
Experimental: Determination of the activity on the TASK-1 channel in Xenopus oocytes:
Human TASK-1 channels were expressed in Xenopus oocytes. For this purpose, oocytes were isolated from Xenopus laevis and defolliculated. Subsequently, TASK-1-encoding RNA synthesized in vitro was injected into oocytes. After two days of TASK-1 protein expression, TASK-1 currents were measured by two-microelectrode voltage clamp. Data were acquired and analyzed using a TEC-10cx amplifier (NPI Electronic, Tamm, Germany) connected to an ITC-16 interface (Instrutech Corp., Long Island, USA) and Pulse software (HEKA Elektronik, Lambrecht, Germany). Oocytes were clamped to −90 mV and TASK-1 mediated currents were measured during 500 ms voltage pulses to 40 mV. Oocytes were continuously superfused with ND96 buffer containing: NaCl 96 mM, KCl2 mM, CaCl2 1.8 mM, MgCl2 1 mM, HEPES 5 mM (pH adjusted to 7.4 with NaOH). All experiments were performed at room temperature.
Test substances were consecutively added to the bath solution at rising concentrations. Compound effects were calculated as the percentage inhibition of
TASK-1 control current before compound application. IC50 values were obtained by fitting the data to the general dose-response equation.

Human TASK-1 channels, sequence (O14649 whole entry): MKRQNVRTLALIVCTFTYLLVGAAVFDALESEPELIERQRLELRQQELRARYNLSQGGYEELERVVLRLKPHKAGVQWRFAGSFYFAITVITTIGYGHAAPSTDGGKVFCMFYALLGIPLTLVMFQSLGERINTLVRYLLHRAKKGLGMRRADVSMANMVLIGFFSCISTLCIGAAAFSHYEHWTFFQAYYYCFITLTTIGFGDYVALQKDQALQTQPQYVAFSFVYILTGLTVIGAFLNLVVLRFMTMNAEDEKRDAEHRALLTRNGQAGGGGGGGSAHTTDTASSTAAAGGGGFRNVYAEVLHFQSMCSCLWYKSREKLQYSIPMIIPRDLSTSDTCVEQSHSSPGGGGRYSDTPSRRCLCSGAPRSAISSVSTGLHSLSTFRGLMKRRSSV

COc1cccc(-c2nn([C@@H]3c4cc(F)cc(F)c4C[C@H]3O)c3c2CN(C(C)=O)CC3)c1 [Example 11k, 1-[1-((1R,2R)-4,6-Difluoro-2-hydroxy-indan-1-yl)-3-(3-methoxy-phenyl)-1,4,6,7-tetrahydro-pyrazolo[4,3-c]pyridin-5-yl]-ethanone]
IC50: 442 nM

CCNC(=O)N1CCc2c(c(-c3cccc(C#N)c3)nn2[C@@H]2c3cc(Cl)cc(Cl)c3C[C@H]2O)C1 [Example 22a, 3-(3-Cyano-phenyl)-1-((1R,2R)-4,6-dichloro-2-hydroxy-indan-1-yl)-1,4,6,7-tetrahydro-pyrazolo[4,3-c]pyridine-5-carboxylic acid ethylamide]
IC50: 180 nM

CC(=O)N1CCc2c(c(-c3cccc(OC(F)(F)F)c3)nn2[C@@H]2c3cc(F)cc(F)c3C[C@H]2O)C1 [Example 11a, 1-[1-((1R,2R)-4,6-Difluoro-2-hydroxy-indan-1-yl)-3-(3-trifluoromethoxy-phenyl)-1,4,6,7-tetrahydro-pyrazolo[4,3-c]pyridin-5-yl]-ethanone]
IC50: 171 nM

CC(C)N1CCc2c(c(-c3ccc(F)cc3)nn2[C@@H]2c3cc(F)cc(F)c3C[C@H]2O)C1 [Example 18b, (1R,2R)-4,6-Difluoro-1-[3-(4-fluoro-phenyl)-5-isopropyl-4,5,6,7-tetrahydro-pyrazolo[4,3-c]pyridin-1-yl]-indan-2-ol]
IC50: 8190 nM

CC(=O)N1CCc2c(c(-c3cccc(C#N)c3)nn2[C@@H]2c3cc(F)cc(Br)c3C[C@H]2O)C1 [Example 11d, 3-[5-Acetyl-1-((1R,2R)-4-bromo-6-fluoro-2-hydroxy-indan-1-yl)-4,5,6,7-tetrahydro-1H-pyrazolo[4,3-c]pyridin-3-yl]-benzonitrile]
IC50: 226 nM

COCCN1CCc2c(c(-c3ccc(F)cc3)nn2[C@@H]2c3cc(F)cc(F)c3C[C@H]2O)C1 [Example 18g]
inhibition at 5 µM: 56%

CC(=O)N1CCc2c(c(-c3ccc(C)cc3)nn2[C@@H]2c3cc(F)cc(F)c3C[C@H]2O)C1 [Example 11x, 1-[1-((1R,2R)-4,6-Difluoro-2-hydroxy-indan-1-yl)-3-p-tolyl-1,4,6,7-tetrahydro-pyrazolo[4,3-c]pyridin-5-yl]-ethanone]
IC50: 1520 nM

CC(=O)N1CCc2c(c(-c3ccc(F)c(C(F)(F)F)c3)nn2[C@H]2c3cc(F)cc(F)c3C[C@]2(C)O)C1 (racemic) [Example 11i, racemic 1-[1-((1S,2S)-4,6-Difluoro-2-hydroxy-2-methyl-indan-1-yl)-3-(4-fluoro-3-trifluoromethyl-phenyl)-1,4,6,7-tetrahydro-pyrazolo[4,3-c]pyridin-5-yl]-ethanone]
IC50: 375 nM

COCCN1CCc2c(c(-c3cccc(C#N)c3)nn2[C@@H]2c3cc(F)cc(F)c3C[C@H]2O)C1 [Example 18d, 3-[1-((1R,2R)-4,6-Difluoro-2-hydroxy-indan-1-yl)-5-(2-methoxy-ethyl)-4,5,6,7-tetrahydro-1H-pyrazolo[4,3-c]pyridin-3-yl]-benzonitrile]
inhibition at 5 µM: 83%

CC(=O)N1CCc2c(c(-c3ccc(C(F)(F)F)cc3)nn2[C@@H]2c3cc(F)cc(F)c3C[C@H]2O)C1 [Example 11ae, 1-[1-((1R,2R)-4,6-Difluoro-2-hydroxy-indan-1-yl)-3-(4-trifluoromethyl-phenyl)-1,4,6,7-tetrahydro-pyrazolo[4,3-c]pyridin-5-yl]-ethanone]
inhibition at 5 µM: 61%

CC(=O)N1CCc2c(c(-c3cccc(Cl)c3)nn2[C@@H]2c3cc(F)cc(F)c3C[C@H]2O)C1 [Example 11v, 1-[3-(3-Chloro-phenyl)-1-((1R,2R)-4,6-difluoro-2-hydroxy-indan-1-yl)-1,4,6,7-tetrahydro-pyrazolo[4,3-c]pyridin-5-yl]-ethanone]
IC50: 1180 nM

CC(=O)N1CCc2c(c(-c3ccc(F)cc3)nn2[C@@H]2c3cc(F)cc(F)c3C[C@H]2O)C1 [Example 11l, 1-[1-((1R,2R)-4,6-Difluoro-2-hydroxy-indan-1-yl)-3-(4-fluoro-phenyl)-1,4,6,7-tetrahydro-pyrazolo[4,3-c]pyridin-5-yl]-ethanone]
IC50: 495 nM

CC(=O)N1CCc2c(c(-c3cccc(C#N)c3)nn2[C@@H]2c3cc(Cl)ccc3C[C@H]2O)C1 [Example 11p, 3-[5-Acetyl-1-((1R,2R)-6-chloro-2-hydroxy-indan-1-yl)-4,5,6,7-tetrahydro-1H-pyrazolo[4,3-c]pyridin-3-yl]-benzonitrile]
IC50: 685 nM

CC(=O)N1CCc2c(c(-c3ccc(F)cc3)nn2[C@@H]2c3c(Cl)cc(Cl)cc3C[C@H]2O)C1 (racemic) [Example 11ac, racemic 1-[1-((1R,2R)-5,7-Dichloro-2-hydroxy-indan-1-yl)-3-(4-fluoro-phenyl)-1,4,6,7-tetrahydro-pyrazolo[4,3-c]pyridin-5-yl]-ethanone]
IC50: 3880 nM

CC(=O)N1CCc2c(c(-c3cccc(C(F)(F)F)c3)nn2[C@H]2c3cc(F)cc(F)c3C[C@@H]2O)C1 [Example 11h, 1-[1-((1S,2S)-4,6-Difluoro-2-hydroxy-indan-1-yl)-3-(3-trifluoromethyl-phenyl)-1,4,6,7-tetrahydro-pyrazolo[4,3-c]pyridin-5-yl]-ethanone]
IC50: 370 nM

CC(=O)N1CCc2c(c(-c3ccc(F)c(C(F)(F)F)c3)nn2[C@@H]2c3cc(F)cc(F)c3C[C@H]2O)C1 [Example 11f, 1-[1-((1R,2R)-4,6-Difluoro-2-hydroxy-indan-1-yl)-3-(4-fluoro-3-trifluoromethyl-phenyl)-1,4,6,7-tetrahydro-pyrazolo[4,3-c]pyridin-5-yl]-ethanone]
IC50: 270 nM

CC(=O)N1CCc2c(c(-c3ccc(Cl)cc3)nn2[C@@H]2c3cc(F)cc(F)c3C[C@H]2O)C1 [Example 11ab, 1-[3-(4-Chloro-phenyl)-1-((1R,2R)-4,6-difluoro-2-hydroxy-indan-1-yl)-1,4,6,7-tetrahydro-pyrazolo[4,3-c]pyridin-5-yl]-ethanone]
IC50: 2970 nM

CCc1cc(F)cc2c1C[C@@H](O)[C@@H]2n1nc(-c2cccc(C#N)c2)c2c1CCN(C(C)=O)C2 [Example 19b, 3-[5-Acetyl-1-((1R,2R)-4-ethyl-6-fluoro-2-hydroxy-indan-1-yl)-4,5,6,7-tetrahydro-1H-pyrazolo[4,3-c]pyridin-3-yl]-benzonitrile]
inhibition at 5 µM: 82%

CC(C)C(=O)N1CCc2c(c(-c3cccc(C#N)c3)nn2[C@@H]2c3cc(F)cc(F)c3C[C@H]2O)C1 [Example 14c, 3-[1-((1R,2R)-4,6-Dif1uoro-2-hydroxy-indan-1-yl)-5-isobutyryl-4,5,6,7-tetrahydro-1H-pyrazolo[4,3-c]pyridin-3-yl]-benzonitrile]
IC50: 250 nM

CC(=O)N1CCc2c(c(-c3ccc(F)cc3)nn2[C@@H]2c3cc(Cl)ccc3C[C@H]2O)C1 [Example 11s, 1-[1-((1R,2R)-6-Chloro-2-hydroxy-indan-1-yl)-3-(4-fluoro-phenyl)-1,4,6,7-tetrahydro-pyrazolo[4,3-c]pyridin-5-yl]-ethanone]
IC50: 804 nM

CC(=O)N1CCc2c(c(-c3cccc(C(F)(F)F)c3)nn2[C@@H]2c3cc(F)cc(F)c3C[C@H]2O)C1 [Example 11q, 1-[1-((1R,2R)-4,6-Difluoro-2-hydroxy-indan-1-yl)-3-(3-trifluoromethyl-phenyl)-1,4,6,7-tetrahydro-pyrazolo[4,3-c]pyridin-5-yl]-ethanone]
IC50: 773 nM

CC(=O)N1CCc2c(c(-c3cccc(Cl)c3)nn2[C@H]2c3cc(F)cc(F)c3C[C@@H]2O)C1 [Example 11b, 1-[3-(3-Chloro-phenyl)-1-((1S,2S)-4,6-difluoro-2-hydroxy-indan-1-yl)-1,4,6,7-tetrahydro-pyrazolo[4,3-c]pyridin-5-yl]-ethanone]
IC50: 190 nM

COc1ccc(F)c(-c2nn([C@@H]3c4cc(F)cc(F)c4C[C@H]3O)c3c2CN(C(C)=O)CC3)c1 [Example 11c, 1-[1-((1R,2R)-4,6-Difluoro-2-hydroxy-indan-1-yl)-3-(2-fluoro-5-methoxy-phenyl)-1,4,6,7-tetrahydro-pyrazolo[4,3-c]pyridin-5-yl]-ethanone]
IC50: 204 nM

N#Cc1cccc(-c2nn([C@@H]3c4cc(F)cc(F)c4C[C@H]3O)c3c2CN(CCC(F)(F)F)CC3)c1 [Example 18c, 3-[1-((1R,2R)-4,6-Difluoro-2-hydroxy-indan-1-yl)-5-(3,3,3-trifluoro-propyl)-4,5,6,7-tetrahydro-1H-pyrazolo[4,3-c]pyridin-3-yl]-benzonitrile]
inhibition at 5 µM: 91%

CC(=O)N1CCc2c(c(-c3cccc(C#N)c3)nn2[C@@H]2c3cc(F)cc(C)c3C[C@H]2O)C1 [Example 19a, 3-[5-Acetyl-1-((1R,2R)-6-fluoro-2-hydroxy-4-methyl-indan-1-yl)-4,5,6,7-tetrahydro-1H-pyrazolo[4,3-c]pyridin-3-yl]-benzonitrile]
IC50: 231 nM

CO[C@@H]1Cc2c(F)cc(F)cc2[C@H]1n1nc(-c2ccc(F)cc2)c2c1CCN(C(C)=O)C2 [Example 16b, 1-[1-((1R,2R)-4,6-Difluoro-2-methoxy-indan-1-yl)-3-(4-fluoro-phenyl)-1,4,6,7-tetrahydro-pyrazolo[4,3-c]pyridin-5-yl]-ethanone]
IC50: 1160 nM

CC(=O)N1CCc2c(c(-c3ccc(F)cc3)nn2[C@@H]2CCc3ccccc32)C1 [Example 12a, 1-[(R)-3-(4-Fluoro-phenyl)-1-indan-1-yl-1,4,6,7-tetrahydro-pyrazolo[4,3-c]pyridin-5-yl]-ethanone]
IC50: 712 nM
